Data reported in article PMC6925260 (Nature Communications, 2019).
Where a chain is given by its changes, count along the chain named. Read-outs that look alike come from different tables or passages of the source.

Key:
[1] = biological target: T1, PPARγ LBD (wt) / SMRT CoRNR box peptide (Homo sapiens, UniProt P37231); experiment: Fluorescence anisotropy, SMRT peptide to wt PPARγ LBD (alone or ligand bound); assay type: binding
T1 construct: 6× His tag with TEV recognition site (N, cleaved yes); made in house; host or cells: E. coli BL21 (DE3) gold
T1 sequence (P37231 230-505): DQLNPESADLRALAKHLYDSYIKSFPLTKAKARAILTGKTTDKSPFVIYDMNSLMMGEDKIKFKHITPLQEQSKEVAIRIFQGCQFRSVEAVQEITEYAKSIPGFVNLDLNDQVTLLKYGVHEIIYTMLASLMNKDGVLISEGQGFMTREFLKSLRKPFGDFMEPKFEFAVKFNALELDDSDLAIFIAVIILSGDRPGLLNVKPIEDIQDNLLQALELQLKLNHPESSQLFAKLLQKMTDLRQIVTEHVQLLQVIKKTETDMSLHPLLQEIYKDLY
Protocol: (§1) These samples were then plated as usual.

[2] = biological target: PPARg LBD N340A; experiment: Supplementary Figure 11: fluorescence anisotropy dissociation constants, N340A (peptide not given)
[3] = biological target: T2, PPARγ LBD (wt) / NCoR CoRNR box peptide (Homo sapiens, UniProt P37231); experiment: Fluorescence anisotropy, NCoR peptide to wt PPARγ LBD (alone or ligand bound); assay type: binding
T2 construct: 6× His tag with TEV recognition site (N, cleaved yes); made in house; host or cells: E. coli BL21 (DE3) gold
T2 sequence (P37231 230-505): T1 sequence (P37231 230-505)
Protocol: as §1

[4] = biological target: PPARγ LBD (wt) / CBP peptide (Homo sapiens, UniProt P37231); experiment: Fluorescence anisotropy, CBP peptide to wt PPARγ LBD
[5] = biological target: PPARg LBD DH12; experiment: Supplementary Figure 11: fluorescence anisotropy dissociation constants, DH12 (peptide not given); assay type: binding
[6] = biological target: T3, N340A PPARγ LBD / SMRT peptide (Homo sapiens, UniProt P37231, N340A); experiment: Fluorescence anisotropy, SMRT peptide to N340A PPARγ LBD; assay type: binding
T3 construct: 6× His tag with TEV recognition site (N, cleaved yes); made in house; host or cells: E. coli BL21 (DE3) gold
T3 sequence (P37231 230-505 N340A): T1 sequence (P37231 230-505) with N111A
Protocol: as §1

[7] = system: PPARγ; details: Supp. Table 9 summary; comparator apo/vehicle; ref 1,4 (supplement); cited from earlier work

Compound: O=C(Nc1ccccc1)c1cc([N+](=O)[O-])ccc1Cl [GW9662]
- Kd ([1]; Supp. Fig. 12, read-out: SMRT dissociation constant average, wt): 634 nM
- SMRT Kd mean difference ±SE, Apo vs ligand ([1]; Supp. Table 4, wt, 9 df): 923 ±178
- Kd ([1]; run SMRT FP 4 5 18, read-out: SMRT dissociation constant, WT): 445 nM
- Kd ([1]; run SMRT FP 4 6 18, read-out: SMRT dissociation constant, WT): 482 nM
- Kd ([1]; run SMRT FP 4 10 18, read-out: SMRT dissociation constant, WT): 976 nM
- effect on affinity/recruitment of SMRT CoRNR peptide ([1]; versus apo): increase affinity
- Kd ([2]; read-out: dissociation constant, Average N340A values, average of the listed data sets): 485 nM
- Kd ([2]; read-out: dissociation constant, data set FP 3 15 18 Inverse agonism part 2): 342 nM
- Kd ([2]; read-out: dissociation constant, data set PPARg LBD N340A 12 11 17): 628 nM
- NCoR Kd mean difference ±SE, Apo vs ligand ([3]; Supp. Table 3, wt, one-way ANOVA, Dunnett's, 11 df): 150 ±39
- effect on corepressor CoRNR box peptide affinity ([3]; Supp. Table 9 summary, NCoR and SMRT, comparator apo): é
- Kd ([3]; read-out: NCoR Kd, wt, Supp. Table 2, wt values not from the same experiment as PPARγC313A,Q322C-BTFA (first wt column)): 273 nM
- Kd ([3]; read-out: NCoR Kd, WT, ligand-bound, run 1): 219 nM
- Kd ([3]; read-out: NCoR Kd, WT, ligand-bound, run 2): 157 nM
- Kd ([3]; read-out: NCoR WT Kd, Supp. Table 1, wt PPARγ LBD, FITC peptide 50 nM, fluorescence anisotropy, pH 7.4, 2 h room temperature, average of two technical replicates): 420 nM
- Kd ([3]; read-out: NCoR dissociation constant average, wt, Supp. Fig. 11): 255 nM
- effect on affinity/recruitment of NCoR CoRNR peptide ([3]; versus apo): increase affinity
- Kd ([4]; read-out: CBP Kd, ligand-bound, run 1): 4700 nM
- Kd ([4]; read-out: CBP Kd, ligand-bound, run 2): 3350 nM
- Kd ([5]; data set 6-23-17, read-out: dissociation constant): 66.2 nM
- Kd ([5]; data set 6-26-17 FP, read-out: dissociation constant): 155 nM
- Kd ([5]; data set FP 3 15 18 Inverse agonism part 2, read-out: dissociation constant): 27.1 nM
- Kd ([5]; data set PPARg LBD DH12 9-26-17, read-out: dissociation constant): 145 nM
- Kd ([5]; data set PPARg LBD DH12 10-24-17, read-out: dissociation constant): 73.1 nM
- SMRT Kd, wt vs N340A mean difference ± SE ([6]; Supp. Fig. 12): -323 ±631
- Kd ([6]; Supp. Fig. 12, read-out: SMRT dissociation constant average, N340A): 957 nM
- Kd ([6]; run SMRT FP 4 5 18, read-out: SMRT dissociation constant, N340A): 855 nM
- Kd ([6]; run SMRT FP 4 6 18, read-out: SMRT dissociation constant, N340A): 1200 nM
- Kd ([6]; run SMRT FP 4 10 18, read-out: SMRT dissociation constant, N340A): 811 nM
- effect on reporter expression in cells [7]: no effect
